Measurements from ChEMBL document CHEMBL5724696, “Autophagy assay results for EUbOPEN Chemogenomics Library” (2024).
Where “and” joins values, the source holds several entries; their conditions need not be identical. Equal entries are not always repeated.

What was measured:
Format in all cases: functional, Homo sapiens
[1] = tested on: TERT-RPE1; assay: (§1) Here: values are normalized to the negative (DMSO; defined as 0% autophagy induction) and positive (250nM Torin1; mTOR inhibitor; defined as maximal inducer of autophagy = 100%) control compounds and represented as % of autophagy induction. […] The impact of autophagy induction on cells is complex and depends on the affected target. As such, the magnitude of a phenotype may not be equally mirrored in the %-value of autophagy induction and vice versa. The dynamics of the induction may indicate the mode of activation: e.g. activation via phosphorylation or a signaling cascade may occur fast, while activation via transcription factors may take considerably longer. […] Of note, treatment concentrations may be sub-optimal for specific compounds, leading to false negative annotations.; conditions: Culturing Media DMEM/F12 (1:1), 1 % Penicillin/Streptomycin, 10% Fetal bovin serum Add-On: No, Screening Media Control DMEM/F12 (1:1), Screening Media Samples DMEM/F12 (1:1)
[2] = tested on: U2OS; assay: as §1; conditions: Culturing Media DMEM, 1 % Penicillin/Streptomycin, 10% Fetal bovin serum Add-On: No, Screening Media Control DMEM, Screening Media Samples DMEM
[3] = tested on: U2OS; assay: as §1; conditions: Culturing Media DMEM, 1 % Penicillin/Streptomycin, 10% Fetal bovin serum Add-On: No, Screening Media Control DMEM, Screening Media Samples DMEM; remark: listed apart in the source
[4] = Compound Concentration 0.5 uM, Timepoint 12 hours
[5] = Compound Concentration 0.5 uM, Timepoint 24 hours
[6] = Compound Concentration 0.5 uM, Timepoint 36 hours
[7] = Compound Concentration 0.5 uM, Timepoint 60 hours
[8] = Compound Concentration 2 uM, Timepoint 12 hours
[9] = Compound Concentration 2 uM, Timepoint 24 hours
[10] = Compound Concentration 2 uM, Timepoint 36 hours
[11] = Compound Concentration 2 uM, Timepoint 60 hours
[12] = Compound Concentration 10 uM, Timepoint 12 hours
[13] = Compound Concentration 10 uM, Timepoint 24 hours
[14] = Compound Concentration 10 uM, Timepoint 36 hours
[15] = Compound Concentration 10 uM, Timepoint 60 hours

| Structure (SMILES) | autophagy induction [2, 4] [%] | autophagy induction [2, 5] [%] | autophagy induction [2, 6] [%] | autophagy induction [2, 7] [%] | autophagy induction [2, 8] [%] | autophagy induction [2, 9] [%] | autophagy induction [2, 10] [%] | autophagy induction [2, 11] [%] | autophagy induction [2, 12] [%] | autophagy induction [2, 13] [%] | autophagy induction [2, 14] [%] | autophagy induction [2, 15] [%] | autophagy induction [3, 4] [%] | autophagy induction [3, 5] [%] | autophagy induction [3, 6] [%] | autophagy induction [3, 7] [%] | autophagy induction [3, 8] [%] | autophagy induction [3, 9] [%] | autophagy induction [3, 10] [%] | autophagy induction [3, 11] [%] | other results |
| --- | --- | --- | --- | --- | --- | --- | --- | --- | --- | --- | --- | --- | --- | --- | --- | --- | --- | --- | --- | --- | --- |
| CCc1cc(C(C)=O)c(O)cc1OCCCCCC(C)(C)c1nn[nH]n1 [LY-255283] | 3.867 | -0.4862 | -0.9692 | -0.6256 | 7.835 | 0.4992 | -1.36 | 0.1348 | 10.6288 | 4.072 | 1.093 | 0.5552 | 7.95 | 0.1788 | 0.4616 | 2.676 | 6.9255 | 1.248 | 3.296 | 1.486 | autophagy induction [1, 4]: -9.9842%; autophagy induction [1, 5]: -11.9426%; autophagy induction [1, 6]: -14.7708%; autophagy induction [1, 7]: -17.4457%; autophagy induction [1, 8]: -8.34%; autophagy induction [1, 9]: -9.195%; autophagy induction [1, 10]: -15.7799%; autophagy induction [1, 11]: -19.0275%; autophagy induction [1, 12]: -6.621%; autophagy induction [1, 13]: -4.037%; autophagy induction [1, 14]: -5.452%; autophagy induction [1, 15]: -5.811%; autophagy induction [3, 12]: -12.1559%; autophagy induction [3, 13]: -5.674%; autophagy induction [3, 14]: -8.912%; autophagy induction [3, 15]: -14.6191% |
| COc1ccc(CNC(=O)c2cc(-c3cncc(Cl)c3)cnc2-c2ccccn2)nc1OC [MK-1064] | 6.6807 | 0.4544 | -59.909 | -3.175 | 5.723 | -2.067 | 2463.06 | -2.86 | 2.927 | -3.704 | 1020.2 | -2.212 | 12.3622 | 4.385 | 3.479 | -7.04 | 9.573 | 2.106 | 1.004 | 0.7274 | autophagy induction ([1]; Compound Concentration 0.5 uM, Timepoint 12 hours, 12 h, 0.5 µM): -1.649% and -1.281%; autophagy induction ([1]; Compound Concentration 0.5 uM, Timepoint 24 hours, 24 h, 0.5 µM): -0.5797% and -3.213%; autophagy induction ([1]; Compound Concentration 0.5 uM, Timepoint 36 hours, 36 h, 0.5 µM): -3.034% and -3.261%; autophagy induction ([1]; Compound Concentration 0.5 uM, Timepoint 60 hours, 60 h, 0.5 µM): -3.035% and -4.321%; autophagy induction ([1]; Compound Concentration 2 uM, Timepoint 12 hours, 12 h, 2 µM): 3.536% and 7.073%; autophagy induction ([1]; Compound Concentration 2 uM, Timepoint 24 hours, 24 h, 2 µM): -0.496% and 6.728%; autophagy induction ([1]; Compound Concentration 2 uM, Timepoint 36 hours, 36 h, 2 µM): -2.12% and 5.645%; autophagy induction ([1]; Compound Concentration 2 uM, Timepoint 60 hours, 60 h, 2 µM): -0.3513% and 7.579%; autophagy induction ([1]; Compound Concentration 10 uM, Timepoint 12 hours, 12 h, 10 µM): 0.9286% and 0.4822%; autophagy induction ([1]; Compound Concentration 10 uM, Timepoint 24 hours, 24 h, 10 µM): 1.419% and 1.256%; autophagy induction ([1]; Compound Concentration 10 uM, Timepoint 36 hours, 36 h, 10 µM): 0.4472% and 1.634%; autophagy induction ([1]; Compound Concentration 10 uM, Timepoint 60 hours, 60 h, 10 µM): 0.346% and 3.096%; autophagy induction [3, 12]: 0.3207%; autophagy induction [3, 13]: -2.025%; autophagy induction [3, 14]: -1.481%; autophagy induction [3, 15]: 2.712% |
